{
  "source": "patent US10011591B2",
  "about": "“Crystalline form of afatinib dimaleate” (Sun Pharmaceutical Industries Limited, priority 2014, dated 2018)",
  "test": "Storage stability towards polymorphic conversion, triple layer package",
  "format": "physicochemical",
  "settings": "25° C. ±2° C. and 60% ±5% relative humidity for two months under triple layer package",
  "source_text": "The term “triple layer package,” as used herein, refers to the afatinib dimaleate being packed in a low density polyethylene (LDPE) pouch, then inserted and heat sealed under vacuum in a bag with a mixture of polyester/LDPE with silica sachet as a desiccant, and then further inserted and heat sealed under vacuum into an outer bag with a mixture of polyester film/aluminum foil/polyester LDPE.",
  "data": [
    {"smiles": "CN(C)C/C=C/C(=O)Nc1cc2c(Nc3ccc(F)c(Cl)c3)ncnc2cc1O[C@H]1CCOC1.O=C(O)/C=C\\C(=O)O.O=C(O)/C=C\\C(=O)O", "note": "[crystalline Form I of afatinib dimaleate, 2-butenamide, N-[4-[(3-chloro-4-fluorophenyl)amino]-7-[[(3S)-tetrahydro-3-furanyl]oxy]-6-quinazolinyl]-4-(dimethylamino)-,(2E)-, (2Z)-2-butenedioate (1:2)]", "values": [
      {"measurement": "polymorphic form stability on storage (conversion to any other form)", "result": "not converted to any other form of afatinib dimaleate"}
    ]}
  ]
}
